Experimental data as given in patent publication US11597739B2, “Enhancing CD8+ T cells for adoptive T cell therapy by inhibiting PTPN1 (PTP1B) and PTPN2 (TC-PTP)” (The Royal Institution for the Advancement of …, priority 2017, dated 2023).

Tested on: mouse activated CD8 T cells
Experiment: Tcm differentiation and activation markers of stimulated mouse CD8 T cells (flow cytometry)
Type: cell-based
Experimental: 8) Stimulation of Mouse CD8 T Cells
2 μg/ml of 145-2C11 Hamster anti-Mouse CD3e in 300 μl of PBS are plated in 24 flat bottom well non-TC treated plates. Incubate O/N at 4° C. CD8 T cells from spleens of 8-12 weeks old OT-1 transgenic mice are isolated. 4×10^5 cells/ml are counted and resuspended in complete RPMI (RPMI+10% FBS heat inactivated at 55° C. for 45 min+Pen/Strep+55 μM β-Mercaptoethanol). The following 2× solutions are prepared:
a. Anti-Mouse CD28 10 μg/ml 40 U/ml rmIL-2. (40 ml)
0.5 ml of 2× solution is added to the corresponding wells. Incubate for 4-8 days. Every 2 days add inhibitor to the corresponding concentration. When the cells are confluent, expand to 6 cm tissue culture plates adding 4 ml of complete RPMI+20 U/ml of IL-2 and in b add 10 μM K884.
Calculate the specific cell lysis as follows: Specific cell lysis=((Sample−BF)/(AF−BF))×100 10) Flow Cytometry 1. Cell Activation • a. Wash cells with 1 ml of culture medium; • b. Centrifuge cells for 5 min at 300 g; • c. Resuspend cells in culture medium; • d. Prepare 2× solutions (negative control with only culture medium, Positive condition with 50 ng/mL of PMA and 500 ng/mL of lonomycin); • e. Plate 100 μL of cell suspension in 96 well plates (U-bottom); • f. Add 100 μL of 2× solutions in appropriate wells; • g. Incubate 4 hours at 37 C, 5% CO2. 2. Extracellular Staining • a. Record cell quantity transfers per tube; • b. Wash cells with 1 mL of PBS+2% FBS; • c. Centrifuge cells for 5 min at 300 g; • d. Empty tubes by inversion; • e. Add the antibodies for extracellular staining; • f. Incubate 20 min at 4° C.; • g. Wash cells with 1 mL of PBS+2% FBS; • h. Centrifuge cells for 5 min at 300 g; • i. Empty tubes by inversion; • j. Ressuspend cells in 100 μL fixation/permeabilisation buffer (eBioscience, #00-5223-56, 1 volume of concentrate buffer+3 volumes of diluent buffer) • k. Incubate 30 min at room temperature or overnight at 4° C. 3. Intracellular Staining • a. Wash cells with 1 mL of permeabilization buffer (eBioscience, #00-8333-56, dilution 1/10 in ddH2O); • b. Centrifuge cells for 5 min at 300 g; • c. […]

CCOC(=O)c1cc2cc(C(F)(F)P(=O)(O)O)c(Br)cc2s1 [Ex. 1, ((6-BROMO-2-(ETHOXYCARBONYL)BENZO[B]THIOPHEN-5-YL)DIFLUOROMETHYL)PHOSPHONATE]
expression of IL-2 receptor alpha (CD25), fluorescence (activated mouse CD8 cells, Tcm gate, compared to untreated): increase on fluorescence closer to one order of magnitude | percentage of Tcm population relative to cells with IL-15 alone (followed by 5 days incubation with recombinant murine IL-15): ~2 times | differentiation into Tcm cells (CD62Lhigh-CD27high) (mouse activated CD8 T cells, compared to untreated cells): increased differentiation into Tcm cells at higher rates than the observed in untreated cells
